In EP0314828A1, “4-Phenyl-1,2,3,4-tetrahydroisoquinolins as ulcer agents” (S O "PHARMACHIM", priority 1987, dated 1989):
Where two headings read alike, the source gives them in different places.

Legend:
[1] = test system: Wasser-Immersions-Streßgeschwüren; assay: water-immersion stress ulcer model in rats, oral administration; format: in vivo, Ratten; set-up: Ulkusindex: scale not given here; details: for Prozent der Unterdrückung des Ulkusindexes / Ulkusindex / Prozentsatz der Unterdrückung des Ulkusindexes: rats
Excerpt: Die Versuche werden mit 280 weißen männlichen Ratten - Wistar-Rasse - mit einem Gewicht von 150 bis 200 g nach der Takagi K., Ishii Y, Arzneim. Forsch. Drug.Res. 17, 1544 (1967) Methode durchgeführt und entsprechend modifiziert. Achtzehn Stunden vor dem Versuch werden die Tiere nicht gefüttert bei freiem Zugang zu Wasserquellen. Die Verbindungen der allgemeinen Formel I werden oral verabreicht; anschließend werden die Ratten, zur Verhinderung jeglicher Bewegung, auf dem Rücken an einer Unterlage angebunden, untereinander isoliert und in bis auf 17 - 18° C temperiertes Wasser getaucht. Fünf Stunden später wurden die Tiere getötet, ihre Mägen herausgenommen und makroskopische destruktive Änderungen festgestellt.
Die Prüfmethode ist dieselbe wie in Beispiel 1.

sauere Magensekret = details: in contrast to Histamin-H₂-Antagonisten; M. Bickel, Arzn.Forsch. 30 (1), 69, 1980; cited from earlier work
Streßgeschwüren = details: experimental models of stress ulcers in mice; M. Bickel, Arzn.Forsch. 30 (1), 69, 1980; cited from earlier work
Geschwüren nach Shei = assay: ulcer model according to Shei (ligature) in rats; format: in vivo, Ratten; details: Table 7, Kontrolle 16
Excerpt: Die Versuche wurden mit weißen, männlichen Ratten, Rasse Wistar, mit einem Gewicht von 180 bis 270 g durchgeführt. Die Tiere werden 48 Stunden nicht gefüttert bei freiem Zugang zu Wasserquellen. 5 Stunden nach der Ligatur werden die Tiere getötet, die Mägen werden herausgenommen und die destruktiven Veränderungen makroskopisch untersucht. Als Vergleichspräparate wurden Cimetidin und Ranitidin angewandt (Tabelle 7). TABELLE 7

[2] = test system: durch Reserpin hervorgerufenen Geschwüren; assay: reserpine-induced ulcer model in rats; format: in vivo, Ratten; set-up: Ulkusindex: scale not given here; details: for Prozentsatz der Unterdrückung des Ulkusindexes / Ulkusindex: Table 6, rats; for Ulkusindex: Kontrolle 44,58
Protocol: Die Versuche werden mit 180 weißen, männlichen Ratten - Rasse Wistar - mit einem Gewicht von 180 bis 270 g durchgeführt. Die Tiere werden 48 Stunden nicht gefüttert bei freiem Zugang zu Wasserquellen. Die Geschwüre wurden hervorgerufen durch die Injektion von 5 mg/kg Reserpin. Eine halbe Stunde vor Einführung des Reserpins erhalten die Tiere peroral verschiedene Dosen von Ia, die Kontrolltiere Wasser, 24 Stunden nach Einführung des Reserpins werden die Tiere mit Thiopental getötet. Die destruktiven Magenveränderungen werden makroskopisch bestimmt. Es wurden Vergleichsuntersuchungen mit Cimetidin und Ranitidin (Tabelle 6) durchgeführt.

acute toxicity in mice = details: mouse, in vivo, Mäusen, read-out: LD₅₀
[3] = test system: durch Indometacin hervorgerufenen Geschwüren; assay: indometacin-induced ulcer model in rats; format: in vivo, Ratten
Protocol: Die Versuche werden mit 50 weißen, männlichen Ratten der Rasse Wistar mit einem Gewicht von 170 bis 200 g durchgeführt. Achtzehn Stunden vor dem Versuch werden die Tiere nicht gefüttert bei freiem Zugang zu Wasserquellen. Das Indometacin wird in einer Dosis von 35 mg/kg intraperitoneal eine halbe Stunde nach der peroralen Verabreichung der Verbindung Ia, eingeführt. In der fünften Stunde werden die Tiere getötet, die Mägen werden herausgenommen und es werden makroskopisch die destruktiven Veränderungen bestimmt. TABELLE 5

[4] = Table 1, peroral, Dosis 1 mg/kg, 5 h immersion
[5] = Table 1, peroral, Dosis 1 mg/kg, 5 h immersion, Kontrolle 55,1

Structure (SMILES): CCOC(=O)Nc1cccc2c1CN(C)CC2c1ccc(Cl)cc1.O=C(O)/C=C\C(=O)O (stereo not drawn) [Ic, /-/-2-Methyl-4-/4-chlorphenyl/8-ethoxycarbonylamino-1,2,3,4-tetrahydroisochinolin-saures Maleat]
- Prozent der Unterdrückung des Ulkusindexes [1, 4]: 28,20 Prozent
- Ulkusindex [1, 5]: 39,58

Structure (SMILES): CCOC(=O)Nc1cccc2c1CN(C)CC2c1ccccc1.O=C(O)/C=C\C(=O)O (stereo not drawn) [Ig, /-/-2-Methyl-4-phenyl-8-ethoxycarbonylamino-1,2,3,4-tetrahydroisochinolin-saures Maleat]
- Prozent der Unterdrückung des Ulkusindexes [1, 4]: 48,00 Prozent
- Ulkusindex [1, 5]: 28,60

Structure (SMILES): CN1Cc2c(Cl)cccc2C(c2ccccc2)C1 (stereo not drawn) [Ih, 2-Methyl-4-phenyl-8-chlor-1,2,3,4-tetrahydroisochinolin]
- Prozent der Unterdrückung des Ulkusindexes [1, 4]: 36,60 Prozent
- Ulkusindex [1, 5]: 34,90

Structure (SMILES): CCOC(=O)Nc1cccc2c1CN(C)CC2c1ccc(Cl)cc1.O=C(O)/C=C\C(=O)O (racemic) [Ib, /+/-2-Methyl-4-/4-chlorphenyl/8-ethoxycarbonylamino-1,2,3,4-tetrahydroisochinolin-saures Maleat]
- Ulkusindex [1, 5]: 7,00
- Aktivität im Vergleich mit /+/(Ib) ([1]; Table 1 data, 1 mg/kg peroral): vierfach niedrigere Aktivität

Structure (SMILES): CN1Cc2c(N)cccc2C(c2ccccc2)C1.O=C(O)/C=C\C(=O)O (stereo not drawn) [Alival, 2-Methyl-4-phenyl-8-amino-1,2,3,4-tetrahydroisochinolin-saueres-Maleat]
- Inhibierung des saueren Magensekrets (sauere Magensekret): nicht inhibiert
- Antigeschwüreffekt (Streßgeschwüren): einen Antigeschwüreffekt aufweist

Structure (SMILES): CCOC(=O)Nc1cccc2c1CN(C)CC2c1ccccc1 (racemic) [If, /+/-2-Methyl-4-phenyl-8-ethoxycarbonylamino-1,2,3,4-tetrahydroisochinolin]
- Prozent der Unterdrückung des Ulkusindexes [1, 4]: 36,30 Prozent
- Ulkusindex [1, 5]: 35,10

Structure (SMILES): CNC(=NCCSCc1nc[nH]c1C)NC#N [Cimetidin, N-Cyan-N-methyl-N-2/ 4-methyl-imidazolin/methylthio-ethylguanidinium, reference compound]
- Ulkusindex (Geschwüren nach Shei; rats, 100 mg/kg): 12,2
- Prozentsatz der Unterdrückung des Ulkusindexes ([2]; 100 mg/kg): 38,00 Prozent
- Ulkusindex ([2]; 100 mg/kg): 27,62

Structure (SMILES): CNC(=C[N+](=O)[O-])NCCSCc1ccc(CN(C)C)o1 [Ranitidin, N-/5-Dimethylamino-methyl/-2-furanil-methyl-thioethyl-/N-methyl-2-nitro/-1,1-ethan-diamin, reference compound]
- Prozentsatz der Unterdrückung des Ulkusindexes ([1]; Table 4, peroral, 0,5 mg/kg): ~27 Prozent
- Ulkusindex ([1]; Table 4, peroral, 0,5 mg/kg, Kontrolle 44,3): 32,3
- Prozentsatz der Unterdrückung des Ulkusindexes ([1]; Table 4, peroral, 1 mg/kg): 39,27 Prozent
- Ulkusindex ([1]; Table 4, peroral, 1 mg/kg, Kontrolle 44,3): 26,9
- Prozentsatz der Unterdrückung des Ulkusindexes ([1]; Table 4, peroral, 3 mg/kg): 35,89 Prozent
- Ulkusindex ([1]; Table 4, peroral, 3 mg/kg, Kontrolle 44,3): 28,4
- Prozentsatz der Unterdrückung des Ulkusindexes ([1]; Table 4, peroral, 10 mg/kg): 48,98 Prozent
- Ulkusindex ([1]; Table 4, peroral, 10 mg/kg, Kontrolle 44,3): 22,6
- Prozentsatz der Unterdrückung des Ulkusindexes ([1]; Table 4, peroral, 30 mg/kg): 61,62 Prozent
- Ulkusindex ([1]; Table 4, peroral, 30 mg/kg, Kontrolle 44,3): 17,0
- Ulkusindex (Geschwüren nach Shei; rats, 30 mg/kg): 9
- Prozentsatz der Unterdrückung des Ulkusindexes ([2]; 30 mg/kg): 48,40 Prozent
- Ulkusindex ([2]; 30 mg/kg): 23,00

Structure (SMILES): CN1Cc2c(N)cccc2C(c2ccc(Cl)cc2)C1 (stereo not drawn) [Id, 2-Methyl-4-/4-chlorphenyl/-8-amino-1,2,3,4-tetrahydroisochinolin]
- Prozent der Unterdrückung des Ulkusindexes [1, 4]: 86,40 Prozent
- Ulkusindex [1, 5]: 7,50

Structure (SMILES): CCOC(=O)Nc1cccc2c1CN(C)CC2c1ccc(Cl)cc1 (racemic) [Ia, 2-Methyl-4-/4-Chlorphenyl/-8-Ethoxykarbonylamino-1,2,3,4-tetrahydroisochinolin]
- Prozent der Unterdrückung des Ulkusindexes [1, 4]: 92,1 Prozent
- Ulkusindex [1, 5]: 4,33
- Prozent der Unterdrückung des Ulkusindexes ([1]; Table 3, oral, 0,100 mg/kg): 46 Prozent
- Ulkusindex ([1]; Table 3, oral, 0,100 mg/kg, Kontrolle 76.6): 41,3
- Prozent der Unterdrückung des Ulkusindexes ([1]; Table 3, oral, 0,250 mg/kg): 57,3 Prozent
- Ulkusindex ([1]; Table 3, oral, 0,250 mg/kg, Kontrolle 76.6): 32,7
- Prozent der Unterdrückung des Ulkusindexes ([1]; Table 3, oral, 0,500 mg/kg): 75,5 Prozent
- Ulkusindex ([1]; Table 3, oral, 0,500 mg/kg, Kontrolle 76.6): 18,8
- Prozent der Unterdrückung des Ulkusindexes ([1]; Table 3, oral, 1,000 mg/kg): 85,00 Prozent
- Ulkusindex ([1]; Table 3, oral, 1,000 mg/kg, Kontrolle 76.6): 11,3
- höhere Ulkusaktivität im Vergleich zu Ranitidin ([1]; ratio of doses for maximal suppression: Ia 1 mg/kg vs Ranitidin 30 mg/kg (Tables 3 and 4)): 30 fach
- Ulkusindex (Geschwüren nach Shei; rats, 0,100 mg/kg, 5 h after ligature): 22
- Ulkusindex (Geschwüren nach Shei; rats, 0,500 mg/kg): 13
- Ulkusindex (Geschwüren nach Shei; rats, 1,5 mg/kg): 7,13
- Ulkusindex (Geschwüren nach Shei; rats, 1,000 mg/kg): 8,25
- LD50 (acute toxicity in mice; ip, intraperitoneal): 125 mg/kg
- LD50 (acute toxicity in mice; oral): 250 mg/kg
- Prozentsatz der Unterdrückung des Ulkusindexes ([3]; Table 5, peroral, 0,050 mg/kg): 37 Prozent
- Ulkusindex ([3]; Table 5, peroral, 0,050 mg/kg, Indometacin 35 mg/kg i.p., Kontrolle 19,5): 12,2
- Prozentsatz der Unterdrückung des Ulkusindexes ([3]; Table 5, peroral, 0,250 mg/kg): 40,6 Prozent
- Ulkusindex ([3]; Table 5, peroral, 0,250 mg/kg, Kontrolle 19,5): 10,4
- Prozentsatz der Unterdrückung des Ulkusindexes ([3]; Table 5, peroral, 0,500 mg/kg): 52 Prozent
- Ulkusindex ([3]; Table 5, peroral, 0,500 mg/kg, Kontrolle 19,5): 9,3
- Prozentsatz der Unterdrückung des Ulkusindexes ([3]; Table 5, peroral, 1,100 mg/kg): 78 Prozent
- Ulkusindex ([3]; Table 5, peroral, 1,100 mg/kg, Kontrolle 19,5): 4,2
- Unterdrückungsprozentsatz ([3]; peroral, minimal dose printed as 0,1 mg/kg): 37
- Ulkusindex ([3]; peroral, minimal dose printed as 0,1 mg/kg, Kontrolltiere 19,5): 12,2
- Prozentsatz der Unterdrückung des Ulkusindexes ([2]; peroral, 1 mg/kg): 47,2 Prozent
- Ulkusindex ([2]; peroral, 1 mg/kg): 23,5
- Prozentsatz der Unterdrückung des Ulkusindexes ([2]; peroral, 2 mg/kg): 57,37 Prozent
- Ulkusindex ([2]; peroral, 2 mg/kg): 19,00
- Prozentsatz der Unterdrückung des Ulkusindexes ([2]; peroral, 3 mg/kg): 41,00 Prozent
- Ulkusindex ([2]; peroral, 3 mg/kg): 26,00
- Prozentsatz der Unterdrückung des Ulkusindexes ([2]; peroral, 0,250 mg/kg): 6,9 Prozent
- Ulkusindex ([2]; peroral, 0,250 mg/kg, Reserpin 5 mg/kg): 41,5
- Prozentsatz der Unterdrückung des Ulkusindexes ([2]; peroral, 0,500 mg/kg): 17 Prozent
- Ulkusindex ([2]; peroral, 0,500 mg/kg): 37
- Prozentsatz der Unterdrückung des Ulkusindexes ([2]; peroral, 1,5 mg/kg): 52,15 Prozent
- Ulkusindex ([2]; peroral, 1,5 mg/kg): 21,33
- Ulkuseffekt gegenüber Vergleichspräparaten Cimetidin und Ranitidin ([2]; maximal effect of Ia at 1,5 and 2 mg/kg vs Cimetidin 100 mg/kg and Ranitidin 30 mg/kg): mehrfach höher

Structure (SMILES): CCOC(=O)Nc1cccc2c1CN(C)CC2c1ccccc1 (racemic) [Ie, 2-Methyl-4-phenyl-8-ethoxycarbonylamino-1,2,3,4-tetrahydroisochinolin]
- Prozent der Unterdrückung des Ulkusindexes [1, 4]: 40,60 Prozent
- Ulkusindex [1, 5]: 32,70
